Numbers after ± are expanded uncertainties.
Experiment: excess molar enthalpy (molar enthalpy of mixing); xn = mol fraction of the nth substance listed
Details: 101 kPa, Liquid, Calvet calorimetry

FC(F)(F)C(F)(F)C(F)(F)C(F)(F)C(F)(F)C(F)(F)F [perfluorohexane] + CCCCC
excess molar enthalpy (293.15 K, x1 = 0.05): 0.127 ± 0.00956 kcal/mol | excess molar enthalpy (293.15 K, x1 = 0.1): 0.225 ± 0.0098 kcal/mol | excess molar enthalpy (293.15 K, x1 = 0.15): 0.3 ± 0.0098 kcal/mol | excess molar enthalpy (293.15 K, x1 = 0.2): 0.357 ± 0.01 kcal/mol | excess molar enthalpy (293.15 K, x1 = 0.25): 0.399 ± 0.01 kcal/mol | excess molar enthalpy (293.15 K, x1 = 0.3): 0.431 ± 0.01 kcal/mol | excess molar enthalpy (293.15 K, x1 = 0.35): 0.453 ± 0.01 kcal/mol | excess molar enthalpy (293.15 K, x1 = 0.4): 0.467 ± 0.0103 kcal/mol | excess molar enthalpy (293.15 K, x1 = 0.45): 0.475 ± 0.0103 kcal/mol | excess molar enthalpy (293.15 K, x1 = 0.5): 0.476 ± 0.0103 kcal/mol | excess molar enthalpy (293.15 K, x1 = 0.55): 0.47 ± 0.0103 kcal/mol | excess molar enthalpy (293.15 K, x1 = 0.6): 0.457 ± 0.01 kcal/mol | excess molar enthalpy (293.15 K, x1 = 0.65): 0.435 ± 0.01 kcal/mol | excess molar enthalpy (293.15 K, x1 = 0.7): 0.405 ± 0.01 kcal/mol | excess molar enthalpy (293.15 K, x1 = 0.75): 0.365 ± 0.01 kcal/mol | excess molar enthalpy (293.15 K, x1 = 0.8): 0.315 ± 0.0098 kcal/mol | excess molar enthalpy (293.15 K, x1 = 0.85): 0.253 ± 0.0098 kcal/mol | excess molar enthalpy (293.15 K, x1 = 0.9): 0.18 ± 0.00956 kcal/mol | excess molar enthalpy (293.15 K, x1 = 0.95): 0.0954 ± 0.00956 kcal/mol | excess molar enthalpy (293.15 K, x1 = 1): 0 ± 0.00956 kcal/mol

FC(F)(F)C(F)(F)C(F)(F)C(F)(F)C(F)(F)C(F)(F)F [perfluorohexane] + CCCCCC
excess molar enthalpy (298.15 K, x1 = 0.05): 0.133 ± 0.00956 kcal/mol | excess molar enthalpy (298.15 K, x1 = 0.1): 0.235 ± 0.0098 kcal/mol | excess molar enthalpy (298.15 K, x1 = 0.15): 0.313 ± 0.0098 kcal/mol | excess molar enthalpy (298.15 K, x1 = 0.2): 0.372 ± 0.01 kcal/mol | excess molar enthalpy (298.15 K, x1 = 0.25): 0.416 ± 0.01 kcal/mol | excess molar enthalpy (298.15 K, x1 = 0.3): 0.45 ± 0.01 kcal/mol | excess molar enthalpy (298.15 K, x1 = 0.35): 0.473 ± 0.0103 kcal/mol | excess molar enthalpy (298.15 K, x1 = 0.4): 0.49 ± 0.0103 kcal/mol | excess molar enthalpy (298.15 K, x1 = 0.45): 0.5 ± 0.0103 kcal/mol | excess molar enthalpy (298.15 K, x1 = 0.5): 0.503 ± 0.0103 kcal/mol | excess molar enthalpy (298.15 K, x1 = 0.55): 0.5 ± 0.0103 kcal/mol | excess molar enthalpy (298.15 K, x1 = 0.6): 0.489 ± 0.0103 kcal/mol | excess molar enthalpy (298.15 K, x1 = 0.65): 0.469 ± 0.0103 kcal/mol | excess molar enthalpy (298.15 K, x1 = 0.7): 0.441 ± 0.01 kcal/mol | excess molar enthalpy (298.15 K, x1 = 0.75): 0.401 ± 0.01 kcal/mol | excess molar enthalpy (298.15 K, x1 = 0.8): 0.35 ± 0.01 kcal/mol | excess molar enthalpy (298.15 K, x1 = 0.85): 0.285 ± 0.0098 kcal/mol | excess molar enthalpy (298.15 K, x1 = 0.9): 0.205 ± 0.0098 kcal/mol | excess molar enthalpy (298.15 K, x1 = 0.95): 0.11 ± 0.00956 kcal/mol | excess molar enthalpy (298.15 K, x1 = 1): 0 ± 0.00956 kcal/mol

FC(F)(F)C(F)(F)C(F)(F)C(F)(F)C(F)(F)C(F)(F)F [perfluorohexane] + CCCCCC(C)C
excess molar enthalpy (288.05 K, x1 = 1): 0 ± 0.00956 kcal/mol | excess molar enthalpy (298.15 K, x1 = 1): 0 ± 0.00956 kcal/mol

FC(F)(F)C(F)(F)C(F)(F)C(F)(F)C(F)(F)C(F)(F)F [perfluorohexane] + CCCCCCC
excess molar enthalpy (298.15 K, x1 = 0.05): 0.135 ± 0.00956 kcal/mol | excess molar enthalpy (298.15 K, x1 = 0.1): 0.24 ± 0.0098 kcal/mol | excess molar enthalpy (298.15 K, x1 = 0.15): 0.321 ± 0.0098 kcal/mol | excess molar enthalpy (298.15 K, x1 = 0.2): 0.382 ± 0.01 kcal/mol | excess molar enthalpy (298.15 K, x1 = 0.25): 0.429 ± 0.01 kcal/mol | excess molar enthalpy (298.15 K, x1 = 0.3): 0.463 ± 0.0103 kcal/mol | excess molar enthalpy (298.15 K, x1 = 0.35): 0.487 ± 0.0103 kcal/mol | excess molar enthalpy (298.15 K, x1 = 0.4): 0.504 ± 0.0103 kcal/mol | excess molar enthalpy (298.15 K, x1 = 0.45): 0.513 ± 0.0103 kcal/mol | excess molar enthalpy (298.15 K, x1 = 0.5): 0.516 ± 0.0103 kcal/mol | excess molar enthalpy (298.15 K, x1 = 0.55): 0.513 ± 0.0103 kcal/mol | excess molar enthalpy (298.15 K, x1 = 0.6): 0.503 ± 0.0103 kcal/mol | excess molar enthalpy (298.15 K, x1 = 0.65): 0.485 ± 0.0103 kcal/mol | excess molar enthalpy (298.15 K, x1 = 0.7): 0.459 ± 0.01 kcal/mol | excess molar enthalpy (298.15 K, x1 = 0.75): 0.421 ± 0.01 kcal/mol | excess molar enthalpy (298.15 K, x1 = 0.8): 0.371 ± 0.01 kcal/mol | excess molar enthalpy (298.15 K, x1 = 0.85): 0.307 ± 0.0098 kcal/mol | excess molar enthalpy (298.15 K, x1 = 0.9): 0.225 ± 0.0098 kcal/mol | excess molar enthalpy (298.15 K, x1 = 0.95): 0.124 ± 0.00956 kcal/mol | excess molar enthalpy (298.15 K, x1 = 1): 0 ± 0.00956 kcal/mol

FC(F)(F)C(F)(F)C(F)(F)C(F)(F)C(F)(F)C(F)(F)F [perfluorohexane] + CCCCCCCC
excess molar enthalpy (298.15 K, x1 = 0.05): 0.137 ± 0.00956 kcal/mol | excess molar enthalpy (298.15 K, x1 = 0.1): 0.24 ± 0.0098 kcal/mol | excess molar enthalpy (298.15 K, x1 = 0.15): 0.315 ± 0.0098 kcal/mol | excess molar enthalpy (298.15 K, x1 = 0.2): 0.368 ± 0.01 kcal/mol | excess molar enthalpy (298.15 K, x1 = 0.25): 0.404 ± 0.01 kcal/mol | excess molar enthalpy (298.15 K, x1 = 0.3): 0.428 ± 0.01 kcal/mol | excess molar enthalpy (298.15 K, x1 = 0.35): 0.443 ± 0.01 kcal/mol | excess molar enthalpy (298.15 K, x1 = 0.4): 0.452 ± 0.01 kcal/mol | excess molar enthalpy (298.15 K, x1 = 0.45): 0.457 ± 0.01 kcal/mol | excess molar enthalpy (298.15 K, x1 = 0.5): 0.458 ± 0.01 kcal/mol | excess molar enthalpy (298.15 K, x1 = 0.55): 0.457 ± 0.01 kcal/mol | excess molar enthalpy (298.15 K, x1 = 0.6): 0.452 ± 0.01 kcal/mol | excess molar enthalpy (298.15 K, x1 = 0.65): 0.442 ± 0.01 kcal/mol | excess molar enthalpy (298.15 K, x1 = 0.7): 0.426 ± 0.01 kcal/mol | excess molar enthalpy (298.15 K, x1 = 0.75): 0.401 ± 0.01 kcal/mol | excess molar enthalpy (298.15 K, x1 = 0.8): 0.363 ± 0.01 kcal/mol | excess molar enthalpy (298.15 K, x1 = 0.85): 0.309 ± 0.0098 kcal/mol | excess molar enthalpy (298.15 K, x1 = 0.9): 0.234 ± 0.0098 kcal/mol | excess molar enthalpy (298.15 K, x1 = 0.95): 0.133 ± 0.00956 kcal/mol | excess molar enthalpy (298.15 K, x1 = 1): 0 ± 0.00956 kcal/mol

FC(F)(F)C(F)(F)C(F)(F)C(F)(F)C(F)(F)F [perfluoropentane] + CCCCCC
excess molar enthalpy (293.15 K, x1 = 0.05): 0.127 ± 0.00956 kcal/mol | excess molar enthalpy (293.15 K, x1 = 0.1): 0.224 ± 0.0098 kcal/mol | excess molar enthalpy (293.15 K, x1 = 0.15): 0.298 ± 0.0098 kcal/mol | excess molar enthalpy (293.15 K, x1 = 0.2): 0.352 ± 0.01 kcal/mol | excess molar enthalpy (293.15 K, x1 = 0.25): 0.392 ± 0.01 kcal/mol | excess molar enthalpy (293.15 K, x1 = 0.3): 0.42 ± 0.01 kcal/mol | excess molar enthalpy (293.15 K, x1 = 0.35): 0.439 ± 0.01 kcal/mol | excess molar enthalpy (293.15 K, x1 = 0.4): 0.451 ± 0.01 kcal/mol | excess molar enthalpy (293.15 K, x1 = 0.45): 0.456 ± 0.01 kcal/mol | excess molar enthalpy (293.15 K, x1 = 0.5): 0.455 ± 0.01 kcal/mol | excess molar enthalpy (293.15 K, x1 = 0.55): 0.449 ± 0.01 kcal/mol | excess molar enthalpy (293.15 K, x1 = 0.6): 0.436 ± 0.01 kcal/mol | excess molar enthalpy (293.15 K, x1 = 0.65): 0.416 ± 0.01 kcal/mol | excess molar enthalpy (293.15 K, x1 = 0.7): 0.388 ± 0.01 kcal/mol | excess molar enthalpy (293.15 K, x1 = 0.75): 0.352 ± 0.01 kcal/mol | excess molar enthalpy (293.15 K, x1 = 0.8): 0.305 ± 0.0098 kcal/mol | excess molar enthalpy (293.15 K, x1 = 0.85): 0.248 ± 0.0098 kcal/mol | excess molar enthalpy (293.15 K, x1 = 0.9): 0.178 ± 0.00956 kcal/mol | excess molar enthalpy (293.15 K, x1 = 0.95): 0.0956 ± 0.00956 kcal/mol | excess molar enthalpy (293.15 K, x1 = 1): 0 ± 0.00956 kcal/mol

Source: the NIST ThermoML archive (doi:10.1016/j.jct.2007.04.002)
